{"source": "ChEMBL document CHEMBL5705896", "about": "(ACS Chem Biol, 2013)", "key": {"[1]": {"target": "T1, Histone-lysine N-methyltransferase EZH2 (Homo sapiens, UniProt Q15910)", "test": "Inhibition of EZH2 methyltransferase activity (unknown origin) in PRC2 complex using 3H-SAM as substrate by Scintillation proximity assay"}, "[2]": {"target": "T1, Histone-lysine N-methyltransferase EZH2", "test": "Binding affinity to GFP-tagged EZH2 in HEK293 cells assessed as nuclear colocalization at 3.75 uM incubated for 15 mins by imaging based analysis", "format": "cell-based"}, "[3]": {"target": "Histone-lysine N-methyltransferase EZH2 (Mus musculus) (UniProt Q61188)", "sequence (Q61188 whole entry)": "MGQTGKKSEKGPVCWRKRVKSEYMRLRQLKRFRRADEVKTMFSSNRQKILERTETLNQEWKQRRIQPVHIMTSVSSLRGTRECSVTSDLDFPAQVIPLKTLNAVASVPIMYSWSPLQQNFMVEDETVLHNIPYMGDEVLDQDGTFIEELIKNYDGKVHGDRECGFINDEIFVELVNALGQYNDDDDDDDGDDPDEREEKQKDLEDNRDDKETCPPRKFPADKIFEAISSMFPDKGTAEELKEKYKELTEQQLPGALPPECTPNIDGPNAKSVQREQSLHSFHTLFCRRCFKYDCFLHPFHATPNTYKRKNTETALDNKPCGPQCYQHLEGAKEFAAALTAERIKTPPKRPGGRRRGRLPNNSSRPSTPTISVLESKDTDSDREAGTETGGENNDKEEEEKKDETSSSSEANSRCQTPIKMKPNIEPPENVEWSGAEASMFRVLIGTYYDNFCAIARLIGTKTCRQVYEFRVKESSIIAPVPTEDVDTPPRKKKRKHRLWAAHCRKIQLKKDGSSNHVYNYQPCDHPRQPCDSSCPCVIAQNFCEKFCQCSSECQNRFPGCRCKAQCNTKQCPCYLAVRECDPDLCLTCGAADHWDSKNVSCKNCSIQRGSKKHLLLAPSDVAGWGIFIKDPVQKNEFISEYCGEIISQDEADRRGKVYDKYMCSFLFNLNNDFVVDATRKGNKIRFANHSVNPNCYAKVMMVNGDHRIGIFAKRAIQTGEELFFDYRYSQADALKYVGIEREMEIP", "test": "Binding affinity to EZH2 in mouse MEF cells expressing YPet fluorophore assessed as increase in fluorescence intensity in nucleus at 3.75 uM incubated for 15 mins", "format": "cell-based"}, "DB [4]": {"tested_on": "DB", "test": "Antiproliferative activity against human DB cells assessed as reduction in cell viability at 3000 nM measured after 8 days by cell proliferation assay", "format": "functional, cell-based", "details": "time 8.0 day"}, "DB [5]": {"tested_on": "DB", "test": "Downregulation of H3K27me3 level in human DB cells at 3000 nM measured after 3 days", "format": "functional, cell-based", "details": "time 3.0 day"}, "[6]": {"target": "Histone-lysine N-methyltransferase EZH1 (Homo sapiens, UniProt Q92800)", "sequence (Q92800 whole entry)": "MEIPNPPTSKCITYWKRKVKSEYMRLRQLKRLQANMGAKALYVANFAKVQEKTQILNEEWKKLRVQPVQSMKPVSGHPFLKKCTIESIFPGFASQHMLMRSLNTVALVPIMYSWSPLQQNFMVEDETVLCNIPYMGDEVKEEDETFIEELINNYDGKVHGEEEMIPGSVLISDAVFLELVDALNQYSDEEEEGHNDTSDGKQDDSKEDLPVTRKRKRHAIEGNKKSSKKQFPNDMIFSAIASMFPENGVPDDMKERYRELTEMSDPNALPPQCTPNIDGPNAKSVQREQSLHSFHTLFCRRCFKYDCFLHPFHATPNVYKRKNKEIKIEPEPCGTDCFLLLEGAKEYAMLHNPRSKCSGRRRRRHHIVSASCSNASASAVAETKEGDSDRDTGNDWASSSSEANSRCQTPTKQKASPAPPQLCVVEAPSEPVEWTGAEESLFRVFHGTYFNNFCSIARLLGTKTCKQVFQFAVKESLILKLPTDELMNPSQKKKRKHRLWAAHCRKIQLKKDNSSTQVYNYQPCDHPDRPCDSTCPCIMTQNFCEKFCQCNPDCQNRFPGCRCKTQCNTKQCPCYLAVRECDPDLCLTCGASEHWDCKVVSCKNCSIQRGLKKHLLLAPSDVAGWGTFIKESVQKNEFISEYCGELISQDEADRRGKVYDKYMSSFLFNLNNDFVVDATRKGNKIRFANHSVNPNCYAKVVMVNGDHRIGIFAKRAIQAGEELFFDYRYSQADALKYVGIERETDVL", "test": "Inhibition of EZH1 methyltransferase activity (unknown origin) in PRC2 complex using 3H-SAM as substrate by Scintillation proximity assay"}, "[7]": {"test": "Cytotoxicity against human MCF-10A cells assessed as reduction in cell viability by alamar blue assay", "format": "toxicity, cell-based"}, "[8]": {"target": "Histone-lysine N-methyltransferase EZH2 (Homo sapiens, UniProt Q15910, Y641F)", "sequence (Q15910 whole entry Y641F)": "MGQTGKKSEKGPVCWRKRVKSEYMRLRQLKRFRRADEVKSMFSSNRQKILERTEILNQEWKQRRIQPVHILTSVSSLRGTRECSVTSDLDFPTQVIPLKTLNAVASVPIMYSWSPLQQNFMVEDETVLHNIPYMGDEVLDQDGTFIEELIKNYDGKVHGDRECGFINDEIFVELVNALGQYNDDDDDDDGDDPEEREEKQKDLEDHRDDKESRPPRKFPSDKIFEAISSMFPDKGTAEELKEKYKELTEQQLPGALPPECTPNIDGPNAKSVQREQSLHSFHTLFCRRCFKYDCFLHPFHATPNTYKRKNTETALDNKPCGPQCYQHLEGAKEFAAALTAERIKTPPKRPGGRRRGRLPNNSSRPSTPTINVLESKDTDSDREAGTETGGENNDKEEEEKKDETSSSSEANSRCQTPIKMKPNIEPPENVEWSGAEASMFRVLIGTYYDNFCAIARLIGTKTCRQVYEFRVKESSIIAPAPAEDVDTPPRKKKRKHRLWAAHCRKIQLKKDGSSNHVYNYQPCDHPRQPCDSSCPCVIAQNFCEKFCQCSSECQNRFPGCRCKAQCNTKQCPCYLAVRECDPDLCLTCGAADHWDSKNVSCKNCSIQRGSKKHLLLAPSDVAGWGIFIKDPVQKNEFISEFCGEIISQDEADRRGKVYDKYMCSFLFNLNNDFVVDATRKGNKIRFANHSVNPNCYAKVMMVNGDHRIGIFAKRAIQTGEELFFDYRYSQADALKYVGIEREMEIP", "test": "Inhibition of EZH2 Y641F mutant (unknown origin) using HMT as substrate incubated for 60 mins by luminescence based analysis"}, "DB [9]": {"tested_on": "DB", "test": "Downregulation of EZH2 level in human DB cells at 3000 nM measured after 3 days", "format": "functional, cell-based", "details": "time 3.0 day"}}, "note": "Calls of active or inactive are those of the source. The rule behind the calls is not given here."}
{"smiles": "CCCc1cc(C)[nH]c(=O)c1CNC(=O)c1cc(-c2ccc(N3CCN(C(=O)CCOCCOCCOCCOCCOCCOCCOCCOCCOCCOCCOCCOCCNC(=O)CCCC[C@@H]4SC[C@@H]5NC(=O)N[C@@H]54)CC3)nc2)cc2c1cnn2C(C)C", "values": [{"measurement": "IC50", "setting": "[1]", "result": 17, "unit": "nM"}]}
{"smiles": "CCCc1cc(C)[nH]c(=O)c1CNC(=O)c1cc(-c2ccc(N3CCNCC3)nc2)cc2c1cnn2C(C)C", "values": [{"measurement": "IC50", "setting": "[1]", "result": "< 10", "unit": "nM"}]}
{"smiles": "CCCc1cc(C)[nH]c(=O)c1CNC(=O)c1cc(-c2ccc(N3CCN(CCCCc4cn(CCN5C(=O)/C(=C/C=C/C=C6\\N(CCC(=O)OCOC(C)=O)c7ccc(C(=O)OCOC(C)=O)cc7C6(C)C)C(=O)N(CC)C5=O)nn4)CC3)nc2)cc2c1cnn2C(C)C", "values": [{"measurement": "Activity", "setting": "[2]", "result": "Active"}, {"measurement": "IC50", "setting": "[1]", "result": 21, "unit": "nM"}, {"measurement": "Activity", "setting": "[3]", "result": "Active"}]}
{"smiles": "CCCc1cc(C)[nH]c(=O)c1CNC(=O)c1cc(-c2ccc(F)cc2)cc2c1cnn2C(C)C", "values": [{"measurement": "IC50", "setting": "[1]", "result": 63, "unit": "nM"}]}
{"smiles": "CCCc1cc(C)[nH]c(=O)c1CNC(=O)c1cc(-c2ccc(N3CCN(C)CC3)nc2)cc2c1cnn2C(C)C", "values": [{"measurement": "IC50", "setting": "[1]", "result": "< 10", "unit": "nM"}]}
{"smiles": "CCCc1cc(C)[nH]c(=O)c1CNC(=O)c1cc(-c2ccc(N3CCN(CC)CC3)nc2)cc2c1cnn2C(C)C", "values": [{"measurement": "IC50", "setting": "[1]", "result": "< 10", "unit": "nM"}]}
{"smiles": "CCCc1cc(C)n(C)c(=O)c1CN(C)C(=O)c1cc(-c2ccc(N3CCN(C(C)C)CC3)nc2)cc2c1cnn2C(C)C", "values": [{"measurement": "Activity", "setting": "DB [4]", "result": "inactive"}, {"measurement": "IC50", "setting": "[1]", "result": 13000, "unit": "nM"}, {"measurement": "Activity", "setting": "DB [5]", "result": "inactive"}, {"measurement": "IC50", "setting": "[6]", "result": 62000, "unit": "nM"}, {"measurement": "EC50", "setting": "[7]", "result": 27500, "unit": "nM"}, {"measurement": "IC50", "setting": "[8]", "result": "> 200000", "unit": "nM"}, {"measurement": "Activity", "setting": "DB [9]", "result": "inactive"}]}
{"smiles": "CCCc1cc(C)[nH]c(=O)c1CNC(=O)c1cc(-c2ccc(F)cn2)cc2c1cnn2C(C)C", "values": [{"measurement": "IC50", "setting": "[1]", "result": 10, "unit": "nM"}]}
